Legend:
bedstraw = test: Test B pre/postemergence bedstraw; assay type: in vivo, Galium aparine
Outline: (§1)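 Test chemicals in a non-phytotoxic solvent mixture with surfactant were sprayed preemergence onto planted seeds and postemergence onto plants 2 to 18 cm tall (1- to 4-leaf stage). After twelve to sixteen days in a greenhouse, injury was visually rated against untreated controls from 0 (no effect) to 10 (complete control).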

blackgrass = test: Test B pre/postemergence blackgrass; assay type: in vivo, Alopecurus myosuroides
Outline: as §1

surinam grass = test: Test B pre/postemergence surinam grass; assay type: in vivo, Brachiaria decumbens
Outline: as §1

cocklebur = test: Test B pre/postemergence cocklebur; assay type: in vivo, Xanthium strumarium
Outline: as §1

corn = test: Test B pre/postemergence corn; assay type: in vivo, Zea mays
Outline: as §1

crabgrass = test: Test B pre/postemergence crabgrass; assay type: in vivo, Digitaria sanguinalis
Outline: as §1

giant foxtail = test: Test B pre/postemergence giant foxtail; assay type: in vivo, Setaria faberii
Outline: as §1

morningglory = test: Test B pre/postemergence morningglory; assay type: in vivo, Ipomoea hederacea
Outline: as §1

pigweed = test: Test B pre/postemergence pigweed; assay type: in vivo, Amaranthus retroflexus
Outline: as §1

rape = test: Test B pre/postemergence rape; assay type: in vivo, Brassica napus
Outline: as §1

soybean = test: Test B pre/postemergence soybean; assay type: in vivo, Glycine max
Outline: as §1

sugar beet = test: Test B pre/postemergence sugar beet; assay type: in vivo, Beta vulgaris
Outline: as §1

velvetleaf = test: Test B pre/postemergence velvetleaf; assay type: in vivo, Abutilon theophrasti
Outline: as §1

wheat = test: Test B pre/postemergence wheat; assay type: in vivo, Triticum aestivum
Outline: as §1

wild oat = test: Test B pre/postemergence wild oat; assay type: in vivo, Avena fatua
Outline: as §1

purple nutsedge = test: Test B pre/postemergence purple nutsedge; assay type: in vivo, Cyperus rotundus
Outline: as §1

[1] = Postemergence, Rate 62 g/ha, scale 0 to 10, 0 is no effect, 10 is complete control
[2] = Postemergence, Rate 125 g/ha, scale of 0 to 10 where 0 is no effect and 10 is complete control
[3] = Preemergence, Rate 125 g/ha, scale of 0 to 10 where 0 is no effect and 10 is complete control
[4] = Preemergence, Rate 250 g/ha, scale 0 (no effect) to 10 (complete control)
[5] = Rate 62 g/ha, Preemergence, scale 0 to 10
[6] = Rate 250 g/ha, Postemergence, scale 0 to 10, 0 is no effect, 10 is complete control
[7] = Rate 500 g/ha, Postemergence, scale 0 to 10, 0 is no effect, 10 is complete control
[8] = Rate 500 g/ha, Preemergence, scale 0 to 10 (0 no effect, 10 complete control)

Which results are given for `C#CCn1c(=O)on(C(=O)N(c2ccc(F)cc2)C(C)C)c1=O` [Compound 743]?
Plant response rating, Bedstraw (bedstraw; [1]): 0; Bedstraw plant response rating (bedstraw; [2]): 0; Plant response rating, Bedstraw (bedstraw; [3]): 0; Bedstraw plant response rating (bedstraw; [4]): 0; Bedstraw plant response rating (bedstraw; [5]): 0; Bedstraw plant response rating (bedstraw; [6]): 4; Bedstraw plant response rating (bedstraw; [7]): 8; Bedstraw plant response rating (bedstraw; [8]): 8; Plant response rating, Blackgrass (blackgrass; [1]): 3; Blackgrass plant response rating (blackgrass; [2]): 5; Plant response rating, Blackgrass (blackgrass; [3]): 8; Blackgrass plant response rating (blackgrass; [4]): 9; Blackgrass plant response rating (blackgrass; [5]): 8; Blackgrass plant response rating (blackgrass; [6]): 5; Blackgrass plant response rating (blackgrass; [7]): 5; Blackgrass plant response rating (blackgrass; [8]): 9; Plant response rating, B. signalgrass (surinam grass; [1]): 0; B. signalgrass plant response rating (surinam grass; [2]): 0; Plant response rating, B. signalgrass (surinam grass; [3]): 3; B. signalgrass plant response rating (surinam grass; [4]): 4; B. signalgrass plant response rating (surinam grass; [6]): 3; B. signalgrass plant response rating (surinam grass; [7]): 7; B. signalgrass plant response rating (surinam grass; [8]): 8; Plant response rating, Cocklebur (cocklebur; [1]): 0; Cocklebur plant response rating (cocklebur; [2]): 0; Plant response rating, Cocklebur (cocklebur; [3]): 0; Cocklebur plant response rating (cocklebur; [4]): 0; Cocklebur plant response rating (cocklebur; [5]): 0; Cocklebur plant response rating (cocklebur; [6]): 0; Cocklebur plant response rating (cocklebur; [7]): 3; Cocklebur plant response rating (cocklebur; [8]): 10; Plant response rating, Corn (corn; [1]): 0; Corn plant response rating (corn; [2]): 0; Plant response rating, Corn (corn; [3]): 0; Corn plant response rating (corn; [4]): 0; Corn plant response rating (corn; [5]): 0; Corn plant response rating (corn; [6]): 0; Corn plant response rating (corn; [7]): 0; Corn plant response rating (corn; [8]): 0; Plant response rating, Crabgrass (crabgrass; [1]): 2; Crabgrass plant response rating (crabgrass; [2]): 5; Plant response rating, Crabgrass (crabgrass; [3]): 9; Crabgrass plant response rating (crabgrass; [4]): 9; Crabgrass plant response rating (crabgrass; [5]): 9; Crabgrass plant response rating (crabgrass; [6]): 7; Crabgrass plant response rating (crabgrass; [7]): 9; Crabgrass plant response rating (crabgrass; [8]): 9; Plant response rating, Giant foxtail (giant foxtail; [1]): 7; Giant foxtail plant response rating (giant foxtail; [2]): 7; Plant response rating, Giant foxtail (giant foxtail; [3]): 9; Giant foxtail plant response rating (giant foxtail; [4]): 9; Giant foxtail plant response rating (giant foxtail; [5]): 9; Giant foxtail plant response rating (giant foxtail; [6]): 8; Giant foxtail plant response rating (giant foxtail; [7]): 8; Giant foxtail plant response rating (giant foxtail; [8]): 9; Plant response rating, Morningglory (morningglory; [1]): 5; Morningglory plant response rating (morningglory; [2]): 3; Plant response rating, Morningglory (morningglory; [3]): 0; Morningglory plant response rating (morningglory; [4]): 0; Morningglory plant response rating (morningglory; [5]): 0; Morningglory plant response rating (morningglory; [6]): 2; Morningglory plant response rating (morningglory; [7]): 10; Morningglory plant response rating (morningglory; [8]): 0; Plant response rating, Redroot pigweed (pigweed; [1]): 0; Redroot pigweed plant response rating (pigweed; [2]): 0; Plant response rating, Redroot pigweed (pigweed; [3]): 9; Redroot pigweed plant response rating (pigweed; [4]): 9; Redroot pigweed plant response rating (pigweed; [5]): 7; Redroot pigweed plant response rating (pigweed; [6]): 5; Redroot pigweed plant response rating (pigweed; [7]): 8; Redroot pigweed plant response rating (pigweed; [8]): 10; Plant response rating, Rape (rape; [1]): 0; Rape plant response rating (rape; [2]): 0; Plant response rating, Rape (rape; [3]): 5; Rape plant response rating (rape; [4]): 9; Rape plant response rating (rape; [5]): 5; Rape plant response rating (rape; [6]): 0; Rape plant response rating (rape; [7]): 3; Rape plant response rating (rape; [8]): 9; Plant response rating, Soybean (soybean; [1]): 0; Soybean plant response rating (soybean; [2]): 0; Plant response rating, Soybean (soybean; [3]): 0; Soybean plant response rating (soybean; [4]): 0; Soybean plant response rating (soybean; [5]): 0; Soybean plant response rating (soybean; [6]): 4; Soybean plant response rating (soybean; [7]): 4; Soybean plant response rating (soybean; [8]): 0; Plant response rating, Sugarbeets (sugar beet; [1]): 0; Sugarbeets plant response rating (sugar beet; [2]): 0; Plant response rating, Sugarbeets (sugar beet; [3]): 2; Sugarbeets plant response rating (sugar beet; [4]): 4; Sugarbeets plant response rating (sugar beet; [5]): 0; Sugarbeets plant response rating (sugar beet; [6]): 4; Sugarbeets plant response rating (sugar beet; [7]): 4; Sugarbeets plant response rating (sugar beet; [8]): 6; Plant response rating, Velvetleaf (velvetleaf; [1]): 0; Velvetleaf plant response rating (velvetleaf; [2]): 0; Plant response rating, Velvetleaf (velvetleaf; [3]): 2; Velvetleaf plant response rating (velvetleaf; [4]): 3; Velvetleaf plant response rating (velvetleaf; [5]): 0; Velvetleaf plant response rating (velvetleaf; [6]): 0; Velvetleaf plant response rating (velvetleaf; [7]): 4; Velvetleaf plant response rating (velvetleaf; [8]): 3; Plant response rating, Wheat (wheat; [1]): 0; Wheat plant response rating (wheat; [2]): 0; Plant response rating, Wheat (wheat; [3]): 0; Wheat plant response rating (wheat; [4]): 0; Wheat plant response rating (wheat; [5]): 0; Wheat plant response rating (wheat; [6]): 3; Wheat plant response rating (wheat; [7]): 6; Wheat plant response rating (wheat; [8]): 5; Plant response rating, Wild oats (wild oat; [1]): 0; Wild oats plant response rating (wild oat; [2]): 0; Plant response rating, Wild oats (wild oat; [3]): 5; Wild oats plant response rating (wild oat; [4]): 5; Wild oats plant response rating (wild oat; [5]): 5; Wild oats plant response rating (wild oat; [6]): 0; Wild oats plant response rating (wild oat; [7]): 3; Wild oats plant response rating (wild oat; [8]): 9; Plant response rating, Nutsedge (purple nutsedge; [1]): 0; Nutsedge plant response rating (purple nutsedge; [2]): 2; Nutsedge plant response rating (purple nutsedge; [4]): 2; Nutsedge plant response rating (purple nutsedge; [5]): 0; Nutsedge plant response rating (purple nutsedge; [6]): 3; Nutsedge plant response rating (purple nutsedge; [7]): 9; Nutsedge plant response rating (purple nutsedge; [8]): 9
